In patent US5411879A, “Fatty acyl reductases” (Calgene Inc., priority 1993, dated 1995):
pIC50: −log10 of the molar value. Like-named read-outs stand apart in the source and are kept apart here.

Key:
[1] = molecular target: T1, jojoba acyl-CoA reductase (Simmondsia chinensis, UniProt Q9XGY7); assay: Acyl (substrate) specificity of the reductase, microsomal membrane preparation; type: biochemical; parameters: The microsomal membrane preparation described above is used for further characterization of the reductase enzyme; from tissue; host or cells: developing jojoba embryos (seed coats removed), microsomal membrane preparation; settings: acyl-CoA thioester as substrate at 10 μM; 0.5M NaCl; pH 7.5
T1 sequence (Q9XGY7 1-493): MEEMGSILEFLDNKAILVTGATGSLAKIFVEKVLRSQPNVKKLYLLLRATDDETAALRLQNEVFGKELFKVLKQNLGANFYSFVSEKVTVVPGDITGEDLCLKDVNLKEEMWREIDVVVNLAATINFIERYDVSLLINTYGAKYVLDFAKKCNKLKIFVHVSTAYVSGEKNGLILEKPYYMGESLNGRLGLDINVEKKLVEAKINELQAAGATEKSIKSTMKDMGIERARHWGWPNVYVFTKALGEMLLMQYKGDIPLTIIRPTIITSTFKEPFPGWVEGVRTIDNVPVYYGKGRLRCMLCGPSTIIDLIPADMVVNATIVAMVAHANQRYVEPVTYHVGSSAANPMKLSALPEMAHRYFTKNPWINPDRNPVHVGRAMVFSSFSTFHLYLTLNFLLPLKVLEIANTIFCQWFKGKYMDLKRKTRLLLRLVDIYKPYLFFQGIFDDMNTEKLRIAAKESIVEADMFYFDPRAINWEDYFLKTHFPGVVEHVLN
Excerpt: (§1) 3. […] NaCl concentration in these assays is 0.5M.

[2] = system: jojoba acyl-CoA reductase; settings: previously shown, Pollard et al.; cited from earlier work
[3] = system: jojoba acyl-CoA reductase; assay: Acyl (substrate) specificity of the reductase, microsomal membrane preparation; type: biochemical; settings: substrates compared at 10 uM, 0.5M NaCl
Excerpt: as §1

[4] = molecular target: T1, jojoba acyl-CoA reductase; settings: for inhibitory effect on reductase activity (in words): known reductase/synthase inhibitors and sulphydryl blocking agents
Method: Reductase activity in a microsomal membrane preparation is measured by incubation of 20 μM [1-^14 C]acyl-CoA (usually tetracosenoyl-CoA, sp. act. 2-5 Ci/mol) with the sample to be assayed and 2 mM NADPH, in a total volume of 0.25 ml. The incubation mixture also contains 10% w/v glycerol, 1 mM DTT, and is buffered with 50 mM HEPES (4-[2-hydroxyethyl]-1-piperazineethane-sulfonic acid) (HEPES, here and as refered to hereafter is added from a 1M stock solution adjusted to pH 7.5) .
The assay is started by the addition of acyl-CoA substrate and the incubation is carried out at 30° C. for one hour. The assay is terminated by placing the assay tube on ice and immediately adding 0.25 ml isopropanol:acetic acid (5:1 v/v) . Unlabeled wax esters (0.1 mg) and oleyl alcohol (0.1 mg) are added as carriers. The [^14 C] lipids are extracted by the scaled-down protocol of Hara and Radin (Anal. Biochem. (1978) 90:420). Six ml of hexane/isopropanol (3:2, v/v) is added to the terminated assay. The sample is vortexed, 2 ml of aqueous sodium sulphate solution (5.5% w/v) is added, and the sample is again vortexed.
The microsomal membrane preparation described above is used for further characterization of the reductase enzyme. […] Characterization experiments were conducted at pH 7.5, which is close to the presumed physiological pH of the cytoplasm.
1. Salt Effects: A variety of salts were examined for their effect on reductase activity using a standard concentration of 0.5M for monobasic salts. Salts with divalent cations or anions were examined at 0.167M (to give the same ionic strength as the 0.5M monobasic salts) and also at 0.5M.
4. Reductase Inhibitor Assays: Several known inhibitors of other types of reductase proteins were tested for their effect on the jojoba acyl-CoA reductase activity.
Sulphydryl blocking agents were also screened for their effect on reductase activity.

[5] = molecular target: T1, jojoba acyl-CoA reductase; assay: Competitive inhibition experiment, unlabelled palmitoyl-CoA vs [1-14C]tetracosenoyl-CoA; type: biochemical; parameters: The microsomal membrane preparation described above is used for further characterization of the reductase enzyme; from tissue; host or cells: developing jojoba embryos (seed coats removed), microsomal membrane preparation; settings: unlabelled inhibitor 0-30 μM; [1-14C]tetracosenoyl-CoA 20 μM; read-out: concentration giving 50% inhibition of reductase activity towards tetracosenoyl-CoA
jojoba acyl reductase = molecular target: T2, jojoba acyl reductase (Simmondsia chinensis, UniProt Q9XGY7); assay: Detergent inhibition of reductase activity and its reversibility; type: biochemical
T2 construct: The microsomal membrane preparation described above is used for further characterization of the reductase enzyme; from tissue; host or cells: developing jojoba embryos (seed coats removed), microsomal membrane preparation
T2 sequence (Q9XGY7 1-493): T1 sequence (Q9XGY7 1-493)
Excerpt: Often, detergents which are used to solubilize membrane proteins are found to inhibit the enzymatic activity of a desired protein. […] However, as apparent detergent inhibition of reductase activity may be due to some effect other than irreversible inhibition of the enzyme, the reversibility of inhibition by CHAPS was examined.
A protocol for solubilizing jojoba acyl reductase activity utilizing the detergent CHAPS has been devised which yields approximately 85% of the reductase activity from the microsomal membrane preparation. This method is discussed in detail in Example 2. Similarly, studies of reversibility of apparent reductase inhibition by other detergents may be conducted to identify other useful detergents for solubilization of acyl reductase activity for jojoba or other candidate reductases.

[6] = 0.5M for monobasic salts, divalent salts at 0.167M and 0.5M
[7] = millimolar concentrations (given for CoA and NADP+)

CCCCCCCCCCCCCCCCCC(=O)SCCNC(=O)CCNC(=O)[C@H](O)C(C)(C)COP(=O)(O)OP(=O)(O)OC[C@H]1O[C@@H](n2cnc3c(N)ncnc32)[C@H](O)[C@@H]1OP(=O)(O)O [18:0 Acyl-CoA]
Reductase Activity, Acyl-CoA (10 μM) [1]: 1.4 pmol/min/µL

stearoyl-ACP
activity as substrate of the reductase (in words) [2]: activity as a substrate

palmitoyl-ACP [16:0 Acyl-ACP]
activity as substrate of the reductase (in words) [3]: high

O=S(=O)([O-])[O-].[Na+].[Na+] [Na2 SO4]
salt effect on reductase activity (in words) [4, 6]: stimulate reductase activity

O[C@H](CS)[C@H](O)CS (racemic) [Dithiothreitol]
effect on reductase activity (in words) ([4]; other effectors, pH 7.5): stimulatory

[Cl-].[Cl-].[Mg+2] [MgCl2]
salt effect on reductase activity (in words) [4, 6]: stimulate reductase activity

NC(=O)c1ccc[n+]([C@@H]2O[C@H](COP(=O)([O-])OP(=O)(O)OC[C@H]3O[C@@H](n4cnc5c(N)ncnc54)[C@H](O)[C@@H]3O)[C@@H](O)[C@H]2O)c1 [NAD+]
effect on reductase activity (in words) [4, 7]: marginal effects

CC(C)(COP(=O)(O)OP(=O)(O)OC[C@H]1O[C@@H](n2cnc3c(N)ncnc32)[C@H](O)[C@@H]1OP(=O)(O)O)[C@@H](O)C(=O)NCCC(=O)NCCS [CoA, CoenzymeA]
effect on reductase activity (in words) [4, 7]: significant inhibition

O=C(O)CN(CCN(CC(=O)O)CC(=O)O)CC(=O)O [ethylenediaminetetraacetic acid]
optimum concentration for stimulation of reductase activity [4]: 2.5 mM | effect on reductase activity (in words) ([4]; pH 7.5): some stimulation

[Cl-].[Na+] [NaCl]
stimulation of reductase activity ([4]; microsomes, 500000 µM): Up to 15 fold

CCCCCCCC/C=C\CCCCCCCCCCCC(=O)SCCNC(=O)CCNC(=O)[C@H](O)C(C)(C)COP(=O)(O)OP(=O)(O)OC[C@H]1O[C@@H](n2cnc3c(N)ncnc32)[C@H](O)[C@@H]1OP(=O)(O)O [22:1 Acyl-CoA]
Reductase Activity, Acyl-CoA (10 μM) [1]: 1.0 pmol/min/µL

CC[C@H](C)C(=O)O[C@H]1C[C@@H](C)C=C2C=C[C@H](C)[C@H](CC[C@@H]3C[C@@H](O)CC(=O)O3)[C@H]21 [Mevinolin]
concentration at which an effect on jojoba acyl-CoA reductase activity was seen ([4]; only had an effect at relatively high concentrations): 100 µM

CCCCCCCC/C=C\CCCCCCCCCC(=O)SCCNC(=O)CCNC(=O)[C@H](O)C(C)(C)COP(=O)(O)OP(=O)(O)OC[C@H]1O[C@@H](n2cnc3c(N)ncnc32)[C@H](O)[C@@H]1OP(=O)(O)O [20:1 Acyl-CoA]
Reductase Activity, Acyl-CoA (10 μM) [1]: 1.0 pmol/min/µL

C/C=C/C/C=C/CCC(=O)[C@H]1O[C@H]1C(N)=O [Cerulinen]
inhibitory effect on reductase activity (in words) [4]: no strong inhibitory effect

NC(=O)CI [iodoacetamide]
inhibitory effect on reductase activity (in words) [4]: no effect

N#CS [KSCN]
salt effect on reductase activity (in words) [4]: no stimulation or marginal stimulation

CCCCCCCCCCCCCCCC(=O)SCCNC(=O)CCNC(=O)[C@H](O)C(C)(C)COP(=O)(O)OP(=O)(O)OC[C@H]1O[C@@H](n2cnc3c(N)ncnc32)[C@H](O)[C@@H]1OP(=O)(O)O [16:0 Acyl-CoA, palmitoyl-CoA]
pIC50 [5]: 5.30 | activity as substrate of the reductase (in words) [3]: barely above background

C[C@H](CCC(=O)NCCC[N+](C)(C)CCCS(=O)(=O)[O-])[C@H]1CC[C@H]2[C@@H]3[C@H](O)C[C@@H]4C[C@H](O)CC[C@]4(C)[C@H]3C[C@H](O)[C@]12C [CHAPS, 3-[(3-cholamidopropyl)-dimethyl-ammonio]-1-propanesulfonate]
inhibition of reductase activity by detergent (in words) (jojoba acyl reductase; at concentrations above the CMC): strong inhibition | reversibility of detergent inhibition (in words) (jojoba acyl reductase; enzyme exposed on ice, then returned to a concentration at or below the CMC): complete recovery of reductase activity

NC(=O)c1ccc[n+]([C@@H]2O[C@H](COP(=O)([O-])OP(=O)(O)OC[C@H]3O[C@@H](n4cnc5c(N)ncnc54)[C@H](OP(=O)(O)O)[C@@H]3O)[C@@H](O)[C@H]2O)c1 [NADP+]
effect on reductase activity (in words) [4, 7]: significant inhibition

O=C(O)c1cc[c]([Hg][OH])cc1 [para-hydroxymercuribenzoate]
inhibitory effect on reductase activity (in words) [4]: some inhibitory effect

[Cl-].[Li+] [LiCl]
salt effect on reductase activity (in words) [4, 6]: stimulate reductase activity

NC(=O)C1=CN([C@@H]2O[C@H](COP(=O)(O)OP(=O)(O)OC[C@H]3O[C@@H](n4cnc5c(N)ncnc54)[C@H](O)[C@@H]3O)[C@@H](O)[C@H]2O)C=CC1 [NADH]
cofactor-dependent reductase activity relative to the NADPH-dependent activity ([4]; cofactor in place of NADPH, not measurable above background): < 2% | effect on reductase activity (in words) [4, 7]: marginal effects

[Ca+2].[Cl-].[Cl-] [CaCl2]
salt effect on reductase activity (in words) [4, 6]: stimulate reductase activity

CCN1C(=O)C=CC1=O [N-ethylmaleimide]
inhibitory effect on reductase activity (in words) [4]: strongly inhibit

[Cl-].[K+] [KCl]
salt effect on reductase activity (in words) [4, 6]: stimulate reductase activity
